Test results reported in publication PMC9851200, “Multiparameter phenotypic screening for endogenous TFEB and TFE3 translocation identifies novel chemical series modulating lysosome function” (Autophagy, 2022).

Key:
Format in all cases: binding
[1] = target: kinases (KINOMEscan panel) (Homo sapiens, UniProt P22694); conditions: PRKACB; NEW KINOMEscan
[2] = target: kinases (KINOMEscan panel) (Homo sapiens, UniProt P29317); conditions: EPHA2; NEW KINOMEscan
[3] = target: kinases (KINOMEscan panel) (Homo sapiens, UniProt P29376); conditions: LTK; NEW KINOMEscan
[4] = target: kinases (KINOMEscan panel) (Homo sapiens, UniProt P48729); conditions: CSNK1A1; NEW KINOMEscan
[5] = target: T1, kinases (KINOMEscan panel) (Homo sapiens, UniProt P57078); conditions: RIPK4; NEW KINOMEscan
T1 sequence (P57078 1-832): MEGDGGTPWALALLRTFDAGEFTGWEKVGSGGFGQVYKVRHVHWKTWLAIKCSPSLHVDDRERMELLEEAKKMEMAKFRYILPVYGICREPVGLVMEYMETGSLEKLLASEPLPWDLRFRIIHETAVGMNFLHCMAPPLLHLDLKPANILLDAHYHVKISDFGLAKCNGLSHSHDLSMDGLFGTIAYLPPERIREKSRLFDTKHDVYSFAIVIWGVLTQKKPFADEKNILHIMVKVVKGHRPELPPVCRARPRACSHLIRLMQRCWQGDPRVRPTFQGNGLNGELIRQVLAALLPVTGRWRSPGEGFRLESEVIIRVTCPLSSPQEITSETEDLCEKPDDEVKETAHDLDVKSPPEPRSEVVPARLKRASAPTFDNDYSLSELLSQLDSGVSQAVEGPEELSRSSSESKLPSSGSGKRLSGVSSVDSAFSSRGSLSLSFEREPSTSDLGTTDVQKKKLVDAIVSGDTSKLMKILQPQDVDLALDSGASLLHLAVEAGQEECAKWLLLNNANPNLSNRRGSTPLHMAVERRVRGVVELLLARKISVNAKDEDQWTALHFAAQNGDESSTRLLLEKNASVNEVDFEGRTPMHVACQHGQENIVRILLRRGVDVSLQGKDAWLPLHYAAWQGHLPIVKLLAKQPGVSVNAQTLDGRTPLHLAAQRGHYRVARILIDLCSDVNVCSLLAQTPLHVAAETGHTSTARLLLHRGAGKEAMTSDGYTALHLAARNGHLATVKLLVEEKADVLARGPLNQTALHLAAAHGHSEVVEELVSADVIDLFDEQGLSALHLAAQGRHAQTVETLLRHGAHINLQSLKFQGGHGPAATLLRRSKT

[6] = target: kinases (KINOMEscan panel) (Homo sapiens, UniProt Q04912); conditions: MST1R; NEW KINOMEscan
[7] = target: T2, kinases (KINOMEscan panel) (Homo sapiens, UniProt Q6ZWH5); conditions: NEW KINOMEscan
T2 sequence (Q6ZWH5 1-1172): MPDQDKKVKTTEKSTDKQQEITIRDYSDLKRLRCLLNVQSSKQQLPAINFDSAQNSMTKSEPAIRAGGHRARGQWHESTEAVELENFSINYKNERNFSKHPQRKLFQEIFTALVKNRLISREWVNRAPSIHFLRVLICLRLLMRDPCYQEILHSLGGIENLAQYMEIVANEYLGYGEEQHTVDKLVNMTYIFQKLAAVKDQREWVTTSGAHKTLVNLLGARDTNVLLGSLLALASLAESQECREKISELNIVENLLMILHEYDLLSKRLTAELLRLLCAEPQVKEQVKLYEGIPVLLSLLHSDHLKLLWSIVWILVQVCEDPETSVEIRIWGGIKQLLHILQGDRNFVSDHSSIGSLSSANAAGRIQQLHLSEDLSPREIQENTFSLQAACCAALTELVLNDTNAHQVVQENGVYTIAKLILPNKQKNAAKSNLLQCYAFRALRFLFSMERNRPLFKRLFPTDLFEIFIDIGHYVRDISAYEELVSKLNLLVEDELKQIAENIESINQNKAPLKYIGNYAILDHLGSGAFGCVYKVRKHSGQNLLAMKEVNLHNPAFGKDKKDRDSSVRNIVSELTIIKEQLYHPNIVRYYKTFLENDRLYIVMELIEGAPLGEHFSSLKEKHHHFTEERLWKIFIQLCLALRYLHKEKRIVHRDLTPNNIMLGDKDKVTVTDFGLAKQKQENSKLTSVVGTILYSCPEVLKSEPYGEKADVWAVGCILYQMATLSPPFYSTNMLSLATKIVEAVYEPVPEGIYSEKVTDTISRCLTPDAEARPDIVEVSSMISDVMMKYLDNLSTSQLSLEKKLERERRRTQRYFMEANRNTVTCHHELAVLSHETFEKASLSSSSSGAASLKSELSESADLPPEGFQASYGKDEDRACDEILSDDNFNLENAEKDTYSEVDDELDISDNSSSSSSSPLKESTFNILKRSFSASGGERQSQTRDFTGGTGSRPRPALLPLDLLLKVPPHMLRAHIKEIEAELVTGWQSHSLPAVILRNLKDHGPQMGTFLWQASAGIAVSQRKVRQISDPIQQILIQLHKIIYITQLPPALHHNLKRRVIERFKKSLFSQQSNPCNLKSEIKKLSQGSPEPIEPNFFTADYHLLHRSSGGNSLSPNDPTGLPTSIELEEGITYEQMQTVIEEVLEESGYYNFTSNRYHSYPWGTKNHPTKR

[8] = target: kinases (KINOMEscan panel) (Homo sapiens, UniProt Q8TDX7); conditions: NEK7; NEW KINOMEscan
kinases (KINOMEscan panel) (Homo sapiens, UniProt Q8TDX7), sequence (Q8TDX7 whole entry): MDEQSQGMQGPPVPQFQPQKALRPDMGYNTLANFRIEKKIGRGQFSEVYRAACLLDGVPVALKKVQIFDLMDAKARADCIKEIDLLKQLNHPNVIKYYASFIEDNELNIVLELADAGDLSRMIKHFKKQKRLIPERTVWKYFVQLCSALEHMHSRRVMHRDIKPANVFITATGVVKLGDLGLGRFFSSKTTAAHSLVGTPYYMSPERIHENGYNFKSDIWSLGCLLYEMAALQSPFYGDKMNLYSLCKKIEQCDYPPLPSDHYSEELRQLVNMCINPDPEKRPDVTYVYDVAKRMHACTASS

kinases (KINOMEscan panel) (Homo sapiens, UniProt Q04912), sequence (Q04912 25-1400): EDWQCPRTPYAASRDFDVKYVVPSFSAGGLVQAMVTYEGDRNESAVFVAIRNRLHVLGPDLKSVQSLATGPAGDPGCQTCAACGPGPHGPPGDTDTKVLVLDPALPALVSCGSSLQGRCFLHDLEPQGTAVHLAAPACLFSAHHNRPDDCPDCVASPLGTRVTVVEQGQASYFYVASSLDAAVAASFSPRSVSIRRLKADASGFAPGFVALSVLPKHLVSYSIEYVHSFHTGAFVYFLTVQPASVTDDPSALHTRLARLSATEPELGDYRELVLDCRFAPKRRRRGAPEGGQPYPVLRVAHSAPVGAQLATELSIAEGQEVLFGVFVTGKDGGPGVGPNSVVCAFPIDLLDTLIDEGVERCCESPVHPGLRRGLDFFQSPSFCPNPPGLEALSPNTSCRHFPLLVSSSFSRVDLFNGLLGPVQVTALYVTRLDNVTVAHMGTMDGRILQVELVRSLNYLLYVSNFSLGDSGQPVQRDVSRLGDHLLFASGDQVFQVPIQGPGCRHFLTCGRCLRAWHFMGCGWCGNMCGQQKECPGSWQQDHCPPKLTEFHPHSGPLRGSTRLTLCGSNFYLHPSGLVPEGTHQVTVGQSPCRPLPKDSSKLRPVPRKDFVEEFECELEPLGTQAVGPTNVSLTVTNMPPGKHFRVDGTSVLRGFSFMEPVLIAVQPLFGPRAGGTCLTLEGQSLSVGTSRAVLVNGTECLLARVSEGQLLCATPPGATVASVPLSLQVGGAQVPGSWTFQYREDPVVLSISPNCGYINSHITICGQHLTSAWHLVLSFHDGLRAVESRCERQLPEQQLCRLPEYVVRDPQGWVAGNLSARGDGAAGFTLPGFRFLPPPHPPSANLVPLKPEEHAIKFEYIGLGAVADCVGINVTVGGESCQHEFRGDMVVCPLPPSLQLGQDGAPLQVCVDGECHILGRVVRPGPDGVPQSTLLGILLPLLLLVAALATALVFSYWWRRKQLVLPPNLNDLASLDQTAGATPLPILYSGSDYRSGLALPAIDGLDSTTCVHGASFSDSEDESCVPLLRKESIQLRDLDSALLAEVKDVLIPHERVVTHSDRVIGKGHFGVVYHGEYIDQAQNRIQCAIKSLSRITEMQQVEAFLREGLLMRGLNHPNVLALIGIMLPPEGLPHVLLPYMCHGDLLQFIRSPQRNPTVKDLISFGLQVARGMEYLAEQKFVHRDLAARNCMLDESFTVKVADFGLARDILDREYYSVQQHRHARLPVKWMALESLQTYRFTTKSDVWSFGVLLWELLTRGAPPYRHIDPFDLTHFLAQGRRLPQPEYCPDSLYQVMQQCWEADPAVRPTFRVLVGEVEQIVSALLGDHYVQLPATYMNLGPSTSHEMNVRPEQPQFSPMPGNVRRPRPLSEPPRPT
kinases (KINOMEscan panel) (Homo sapiens, UniProt P48729), sequence (P48729 whole entry): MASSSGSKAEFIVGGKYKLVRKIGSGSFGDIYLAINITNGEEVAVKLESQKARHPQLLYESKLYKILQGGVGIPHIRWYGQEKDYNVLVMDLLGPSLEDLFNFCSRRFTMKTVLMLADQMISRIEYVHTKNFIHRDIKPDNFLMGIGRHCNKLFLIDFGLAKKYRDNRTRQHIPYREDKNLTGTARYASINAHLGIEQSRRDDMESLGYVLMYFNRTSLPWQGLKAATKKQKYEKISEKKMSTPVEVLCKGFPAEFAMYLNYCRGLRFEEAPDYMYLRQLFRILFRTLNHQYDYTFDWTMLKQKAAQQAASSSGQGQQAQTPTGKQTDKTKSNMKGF
kinases (KINOMEscan panel) (Homo sapiens, UniProt P29317), sequence (P29317 24-976): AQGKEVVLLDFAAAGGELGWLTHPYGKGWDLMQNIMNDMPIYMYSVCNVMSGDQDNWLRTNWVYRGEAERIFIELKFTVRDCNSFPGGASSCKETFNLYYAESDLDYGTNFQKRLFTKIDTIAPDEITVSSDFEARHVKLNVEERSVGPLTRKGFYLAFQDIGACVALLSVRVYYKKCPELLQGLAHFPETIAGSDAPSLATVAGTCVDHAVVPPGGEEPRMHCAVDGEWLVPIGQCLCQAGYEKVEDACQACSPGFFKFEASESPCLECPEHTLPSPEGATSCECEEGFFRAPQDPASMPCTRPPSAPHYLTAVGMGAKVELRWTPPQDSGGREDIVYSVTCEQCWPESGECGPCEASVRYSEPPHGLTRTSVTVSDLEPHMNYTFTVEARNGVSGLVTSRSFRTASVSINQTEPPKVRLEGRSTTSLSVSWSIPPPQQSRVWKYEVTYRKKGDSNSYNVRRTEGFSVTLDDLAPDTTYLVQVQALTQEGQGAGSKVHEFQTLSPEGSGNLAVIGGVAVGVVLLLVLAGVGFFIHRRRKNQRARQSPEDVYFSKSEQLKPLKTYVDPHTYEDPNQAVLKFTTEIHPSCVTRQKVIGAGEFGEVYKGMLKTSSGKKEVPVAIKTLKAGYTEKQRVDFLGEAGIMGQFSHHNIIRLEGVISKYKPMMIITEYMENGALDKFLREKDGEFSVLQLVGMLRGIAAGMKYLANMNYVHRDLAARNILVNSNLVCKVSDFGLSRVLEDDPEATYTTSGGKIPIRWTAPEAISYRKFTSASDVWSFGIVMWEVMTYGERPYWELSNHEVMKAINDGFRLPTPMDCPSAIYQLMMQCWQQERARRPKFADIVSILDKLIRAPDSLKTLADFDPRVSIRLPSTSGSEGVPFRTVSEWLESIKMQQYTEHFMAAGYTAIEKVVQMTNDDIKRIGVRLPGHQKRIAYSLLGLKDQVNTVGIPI
kinases (KINOMEscan panel) (Homo sapiens, UniProt P29376), sequence (P29376 17-864): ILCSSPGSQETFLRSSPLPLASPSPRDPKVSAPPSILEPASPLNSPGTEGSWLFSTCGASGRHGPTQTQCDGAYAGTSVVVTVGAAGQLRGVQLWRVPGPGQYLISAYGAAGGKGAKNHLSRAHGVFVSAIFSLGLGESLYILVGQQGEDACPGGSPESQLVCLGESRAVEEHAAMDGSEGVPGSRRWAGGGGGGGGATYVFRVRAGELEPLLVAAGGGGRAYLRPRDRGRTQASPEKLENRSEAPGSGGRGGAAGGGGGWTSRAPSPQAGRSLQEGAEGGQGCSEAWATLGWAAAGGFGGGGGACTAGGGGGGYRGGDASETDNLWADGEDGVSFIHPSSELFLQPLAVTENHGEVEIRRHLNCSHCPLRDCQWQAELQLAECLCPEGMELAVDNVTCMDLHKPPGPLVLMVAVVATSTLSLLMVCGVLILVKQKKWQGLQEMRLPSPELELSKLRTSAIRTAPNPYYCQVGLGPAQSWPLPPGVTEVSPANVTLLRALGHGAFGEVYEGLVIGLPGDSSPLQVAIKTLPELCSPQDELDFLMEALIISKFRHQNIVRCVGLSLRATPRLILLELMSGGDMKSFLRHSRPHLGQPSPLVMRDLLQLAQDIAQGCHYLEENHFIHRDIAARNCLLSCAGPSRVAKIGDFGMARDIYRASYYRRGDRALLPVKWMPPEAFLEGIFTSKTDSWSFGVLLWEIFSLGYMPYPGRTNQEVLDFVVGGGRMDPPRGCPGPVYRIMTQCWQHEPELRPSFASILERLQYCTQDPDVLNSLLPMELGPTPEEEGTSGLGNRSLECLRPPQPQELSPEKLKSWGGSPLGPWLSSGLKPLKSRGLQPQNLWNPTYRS

| Compound | KINOMEscan PRKACB [1] | KINOMEscan EPHA2 [2] | KINOMEscan LTK [3] | KINOMEscan CSNK1A1 [4] | KINOMEscan RIPK4 [5] | KINOMEscan MST1R [6] | KINOMEscan NEK10 [7] | KINOMEscan NEK7 [8] |
| --- | --- | --- | --- | --- | --- | --- | --- | --- |
| Cc1cccc(-c2nc(Nc3ccc4nn(C)cc4c3)c3ccccc3n2)n1 [NK167] | 1 | 0 | 6 | 7 | 0 | 0 | 11 | 0 |
| Cc1cccc(-c2nc(N(C)c3ccc4ncsc4c3)c3ccccc3n2)n1 [NK-161] | 6 | 2 | 14 | 10 | 0 | 2 | 17 | 0 |
